Test results taken from US5716994A, “Antitumor and antileukaemic substances, their preparation and pharmaceutical compositions containing them” (Rhone-Poulenc Rorer S.A., priority 1994, dated 1998).
Read-outs that look alike come from different tables or passages of the source.

Assays:
[1] = test system: Tubulin, derived from pig brain; settings: for effect on the polymerization of tubulin (in words): increase in the latent period, decrease in the rate of polymerization, lower turbidity in the stationary state; for IC50: read-out: concentration which inhibits by 50% the polymerization of tubulin, tubulin 8.5 μM, 37° C., 30 minutes, product 0.8 to 16 μM
Excerpt: The assembly of tubulin into microtubules results in an increase in the turbidity observed at 350 nm with the aid of spectrophotometer.

resistant lines P388/DOX = settings: p388 leukaemia cells
[2] = test system: murine leukaemia cell lines P388; settings: p388 leukaemia cells

Row | SMILES | effect on the polymerization of tubulin (in words) [1] | IC50 [1] [nM] | IC50 ([1]; listed as 3-(3-hydroxy-4-methoxybenzyl)-7-methylene-1-vinyl-2,3,3a,4,7,7a-hexahydroinden-4) [nM] | cytotoxicity (resistant lines P388/DOX) | cytotoxicity [2]
1 | C=CC1CC(Cc2ccc(OC)c(O)c2)C2C(=O)C=CC(=C)C12 (stereo not drawn) [formula (I), 3-(3-hydroxy-4-methoxybenzyl)-7-methylene-1-vinyl-2,3,3a,4,7,7a-hexahydroinden-4-one] | inhibition of the polymerization of tubulin | < 5 | < 1 | – | –
2 | C=CC1CC(Cc2ccc(OC)c(O)c2)c2c(O)ccc(C)c21 (stereo not drawn) [formula (II), 3-(3-hydroxy-4-methoxybenzyl)-4-hydroxy-7-methyl-1-vinylindan] | inhibition of the polymerization of tubulin | – | – | less than 1 μg/cm^3 | less than 1 μg/cm^3
